From the NIST ThermoML archive (doi:10.1021/je0340755)
Numbers after ± are expanded uncertainties.

Experiment: xn = mol fraction of the nth substance listed
Conditions: 101.3 kPa, Liquid; for viscosity: Capillary tube (Ostwald / Ubbelohde) method

OCCCCO [1,4-butanediol] + O
Conditions | mass density, 318.15 K [kg/m3] | mass density, 328.15 K [kg/m3] | speed of sound, 318.15 K [m/s] | speed of sound, 328.15 K [m/s] | viscosity, 328.15 K [mPa·s]
x2 = 0.055 | – | 994.94 ± 0.36 | – | 1554.9 ± 6.4 | 18.38 ± 0.11
x2 = 0.1534 | – | 996.05 ± 0.34 | – | 1564.8 ± 6.4 | 16.32 ± 0.097
x2 = 0.2472 | – | 997.2 ± 0.33 | – | 1575.6 ± 6.4 | 14.35 ± 0.09
x2 = 0.3542 | – | 998.64 ± 0.31 | – | 1590.3 ± 6.5 | 12.12 ± 0.083
x2 = 0.4531 | – | 999.93 ± 0.3 | – | 1605 ± 6.5 | 10.08 ± 0.078
x2 = 0.498 | – | 1000.44 ± 0.29 | 1640 ± 6.6 | 1610.8 ± 6.6 | 9.167 ± 0.076
x2 = 0.5578 | 1008.07 ± 0.31 | 1001.01 ± 0.29 | 1648.7 ± 6.7 | 1618.6 ± 6.6 | 7.972 ± 0.073
x2 = 0.6513 | 1008.53 ± 0.3 | 1001.51 ± 0.28 | 1661.1 ± 6.7 | 1631.1 ± 6.6 | 6.178 ± 0.07
x2 = 0.7496 | 1007.83 ± 0.29 | 1000.99 ± 0.27 | 1671.4 ± 6.7 | 1641.4 ± 6.6 | 4.438 ± 0.067
x2 = 0.8475 | 1004.59 ± 0.27 | 998.24 ± 0.27 | 1669 ± 6.7 | 1642.3 ± 6.6 | 2.877 ± 0.065
x2 = 0.9081 | 1000.44 ± 0.26 | 994.62 ± 0.27 | 1645 ± 6.6 | 1626.3 ± 6.6 | 1.965 ± 0.064
x2 = 0.9152 | 999.82 ± 0.26 | 994.08 ± 0.27 | 1640.3 ± 6.6 | 1623.2 ± 6.6 | 1.858 ± 0.064
x2 = 0.9253 | 998.88 ± 0.26 | 993.26 ± 0.28 | 1633.3 ± 6.6 | 1618 ± 6.6 | 1.705 ± 0.064
x2 = 0.9355 | 997.88 ± 0.26 | 992.38 ± 0.28 | 1624.2 ± 6.6 | – | 1.549 ± 0.064
x2 = 0.9543 | 995.86 ± 0.27 | – | 1604.9 ± 6.5 | – | 1.257 ± 0.063
x2 = 0.955 | 995.78 ± 0.27 | – | 1603.8 ± 6.5 | – | 1.246 ± 0.063
x2 = 0.9597 | 995.24 ± 0.27 | – | 1598.2 ± 6.5 | – | 1.172 ± 0.063
x2 = 0.9699 | 994.03 ± 0.27 | – | 1584.8 ± 6.5 | – | 1.009 ± 0.063
x2 = 0.9804 | 992.74 ± 0.28 | – | 1568.2 ± 6.4 | – | 0.837 ± 0.063
x2 = 0.9901 | 991.5 ± 0.28 | – | 1552.7 ± 6.4 | – | 0.674 ± 0.063
x2 = 0.9924 | 991.2 ± 0.28 | – | 1548.3 ± 6.3 | – | 0.635 ± 0.063
x2 = 0.9955 | 990.8 ± 0.28 | – | 1542.8 ± 6.3 | – | 0.581 ± 0.063
